Measured values taken from PubChem BioAssay AID1288 (Columbia University Molecular Screening Center, 2008).
Activity calls are given as the source filed them. No rule for the calls is given here.

test: inhibitors of TNFa-induced E-selectin expression, confirmation, imaging, retest plus dose response, cell count (AID 1288); conditions: human endothelial cells, TNFa-induced E-selectin, imaging; at 2 µM; stronger effect = higher value;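 also: 0% = stimulated vehicle wells and 100% = unstimulated vehicle wells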

Compound	inhibition
CC(OC(=O)CCN1C(=O)c2cccc([N+](=O)[O-])c2C1=O)C(=O)Nc1cc(Cl)cc(Cl)c1 (stereo not drawn)	36.2% (inactive)
COc1ccc(-n2c(COc3ccccc3)nnc2SCC(N)=O)cc1	42.3% (inactive)
COCCCNC(=S)N1CCN(c2ccc([N+](=O)[O-])cc2)CC1	20% (inactive)
COc1cc(C(=O)OCCNC(=O)c2ccncc2)cc(OC)c1OC	9.29% (inactive)
COc1cccc(N2CC(C(=O)Nc3nnc(SCC(=O)c4ccccc4)s3)CC2=O)c1 (stereo not drawn)	9.31% (inactive)
COc1ccc(OCC2CNC(=O)O2)cc1 (stereo not drawn)	0.97% (inactive)
CCc1ccc(CC2S/C(=C(\C#N)C(C)=O)NC2=O)cc1 (stereo not drawn)	5.01% (inactive)
C/C(=N\Nc1cccc2cccnc12)c1ccccc1O	-0.47% (inactive)
CO/C([O-])=N/c1c[n+](-c2ccc(Cl)cc2)no1	26.1% (inactive)
C/C(=N\NC(=O)CN(c1ccccc1Br)S(C)(=O)=O)c1ccc2c(c1)OCCO2	1.65% (inactive)
COC(=O)c1cc2ccsc2n1Cc1nc(-c2cccc(Cl)c2)oc1C	-2.86% (inactive)
Cc1nc2oc(C(=O)c3ccccc3)c(N)c2c2c1COC(C)(C)C2	0.22% (inactive)
CCCCOC(=O)CCn1c(=S)oc2ccccc21	1.96% (inactive)
O=c1[nH][nH]cc1C=Nc1ccc(Cl)cc1	46.9% (inactive)
COc1cc(CC(=O)Oc2ccc3c(c2)OCO3)cc(OC)c1OC	32.5% (inactive)
COc1ccc(-c2csc3ncnc(Oc4cccc5ccc(C)nc45)c23)cc1	5.48% (inactive)
Cc1ccc(N)cc1S(=O)(=O)N(C)C	7.3% (inactive)
O=C(CCc1ccccc1)NCCC1=CCCCC1	6.52% (inactive)
O=C(O)COc1ccc(/C=N/n2cnc3scc(-c4cccs4)c3c2=O)cc1	5.08% (inactive)
COc1ccc(NC(=O)c2cccnc2Cl)c(S(=O)(=O)N2CCOCC2)c1	6.27% (inactive)
Cc1c(Cl)cnc(NC(=O)COC(=O)c2nn(C)c(=O)c3ccccc23)c1Cl	12.5% (inactive)
COc1cccc(C(C(=O)NC(C)(C)C)N(C(=O)CCC(=O)Nc2cc(C)on2)C2CC2)c1OC (stereo not drawn)	2.4% (inactive)
O=C(Oc1ccccc1N1C(=O)C2CC=CCC2C1=O)c1ccc(Br)cc1 (stereo not drawn)	5.75% (inactive)
CCOc1cccc(C(=O)NC(=S)Nc2ccc(N3CCCC3)cc2)c1	10.5% (inactive)
Cc1cc(N2CCCCC2)nc(NCc2ccccc2)n1	36.1% (inactive)

Compound	inhibition
CN(C)S(=O)(=O)c1cc(NC(=O)CSc2nn(-c3ccc(Cl)cc3)c(=S)s2)ccc1Cl	-2.75% (inactive)
COCCOC(=O)c1c(NC(=O)CN2CCOCC2)sc(C(N)=O)c1C	16.3% (inactive)
COc1ccc(C(=O)NCCNC(C)=O)cc1S(=O)(=O)NCc1ccc(Cl)cc1	14.8% (inactive)
CC(C)CC(=O)n1sc(NC(=O)c2ccccc2)nc1=O	-4.08% (inactive)
Cn1c(SCc2ccc(Br)cc2)nnc1-c1ccncc1	0.83% (inactive)
COc1ccc(S(=O)(=O)N(CC(N)=O)C2CCCCC2)cc1Cl	5.95% (inactive)
Fc1ccccc1SCc1nnc(-c2ccccc2Br)o1	9.24% (inactive)
CNC(=S)N=Nc1c(O)[nH]c2ccc(C(C)C)cc12	9.53% (inactive)
CC1(C)CC(=O)C2=C(C1)NCN(Cc1ccc3c(c1)OCO3)C2	3.18% (inactive)
Cc1ccc2cc3c(NC(=O)C(C)C)nn(C)c3nc2c1	9.56% (inactive)
Cc1cc(C(=O)N2CCc3ccccc32)c2ccccc2n1	2.81% (inactive)
O=C(C1CCN(S(=O)(=O)c2cnc[nH]2)CC1)N1CCN(c2ncccn2)CC1	31.7% (inactive)
Cc1ccc(-n2c(SCC(=O)Nc3nccs3)nc3c(c2=O)SCC3)cc1	5.08% (inactive)
O=C(CCn1c2c(c3ccccc31)CCCC2)NNC(=O)c1ccccc1[N+](=O)[O-]	2% (inactive)
O=C1C=C(c2ccccc2)C(O)(c2ccccc2)C1 (stereo not drawn)	-0.71% (inactive)
COc1ccc(-c2n[nH]c(C(F)(F)F)c2-c2cc3ccccc3o2)c(O)c1	3.2% (inactive)
N#CCc1ccc(NS(=O)(=O)c2cccs2)cc1	7.74% (inactive)
Cc1cc(NC(=O)CCC(=O)N(CC(=O)NCC2CCCO2)c2ccccc2C)no1 (stereo not drawn)	14.8% (inactive)
O=C(CSc1ncn(-c2ccccc2)n1)Nc1ccc2c(c1)OCCO2	14.5% (inactive)
CCCCCn1c(SCC#N)nc2cc(C(=O)NCC3CCCO3)ccc2c1=O (stereo not drawn)	7.32% (inactive)
COc1cc(S(=O)(=O)N(Cc2ccccn2)Cc2ccco2)ccc1-n1cnnn1	2% (inactive)
CCc1n[nH]c2c1C(=O)CC(C)(C)C2	18% (inactive)
O=C(N/N=C/c1ccc([N+](=O)[O-])s1)c1cccnc1	44.3% (inactive)
CCCNC(=O)C1CCN(S(=O)(=O)c2c(C)noc2/C=C\c2ccc(OC)cc2)CC1	6.76% (inactive)
COc1ccccc1CNC(=O)CSc1nnc2ccc(-c3cccnc3)nn12	2.18% (inactive)

Compound	inhibition
COc1ccccc1N1CCN(c2cc(N3CCCC3)nc(C)n2)CC1	-3.57% (inactive)
O=C(CN(CC1CCCO1)C(=O)CCC(=O)Nc1nccs1)NCc1ccc2c(c1)OCO2 (stereo not drawn)	33.3% (inactive)
COC(=O)c1cc2oc(C)cc2n1CC(=O)N1CCCc2ccccc21	9.68% (inactive)
CCC(C(=O)OC)n1c(-c2ccccc2)nc2ccccc2c1=O (stereo not drawn)	10.1% (inactive)
O=C(/C=C/c1ccc(F)cc1)NC(=S)Nc1ccccc1C(=O)NC1CCCCC1	2.9% (inactive)
COc1cc(NC(=O)CN2CCC(C)CC2)c(C)cc1[N+](=O)[O-]	8.41% (inactive)
CCN(CC)c1ccc(NC(=O)C2CC3CCC2C3)cc1 (stereo not drawn)	24.7% (inactive)
CC1CCN(S(=O)(=O)c2ccc(NC(=O)CSc3ncccc3C(=O)O)cc2)CC1	5.02% (inactive)
Cc1ccc(NC(=O)COc2ccc(-n3ccnc3)cc2)cc1Cl	9.69% (inactive)
C=CCn1c(=O)c2ccccc2n2c(SCC(=O)N3CCCc4ccccc43)nnc12	6.51% (inactive)
CCn1c(SCc2nc(CC(=O)Nc3ccccc3OC)no2)nnc1-c1cccs1	7.75% (inactive)
O=C(Nc1nnc(-c2ccco2)s1)C1CC1	1.62% (inactive)
Cc1cc(C(=O)CN2C(=O)NC(c3ccccc3)(c3ccccc3)C2=O)c(C)n1Cc1ccco1	-3.9% (inactive)
Cc1nnc(SCC(=O)N2CC(=O)Nc3ccccc32)n1C	41% (inactive)
CC(C)n1c(SCC(=O)Nc2nc3c(s2)CCCC3)nc2c1c(=O)n(C)c(=O)n2C	3.36% (inactive)
CCOC(=O)C1=C(c2ccccc2)N(C)C(=O)NC1c1ccc(O)c(OC)c1 (stereo not drawn)	8.42% (inactive)
O=c1c2cccnc2[nH]c(=S)n1CCCN1CCN(c2ccc(F)cc2)CC1	1.58% (inactive)
CCCN1CCc2[nH]c(=S)[nH]c(=O)c2C1	-2.07% (inactive)
COc1ccc(C(c2nnnn2Cc2ccccc2)N2CCN(c3nc4ccccc4s3)CC2)cc1 (stereo not drawn)	2.21% (inactive)
O=C(O)c1cc2nc(-c3ccc(F)cc3)cc(C(F)(F)F)n2n1	8.45% (inactive)
CCC(=O)Nc1cccc(NC(=O)CSc2nnc(-c3ccc(NS(C)(=O)=O)cc3)n2C)c1	-2.9% (inactive)
O=C(Cn1nnc(-c2ccc(Cl)cc2)n1)NC1CCN(Cc2ccccc2)CC1	11.8% (inactive)
CCCn1nnc(NC(=O)c2cccc(OCC(C)C)c2)n1	27.2% (inactive)
COc1ccc(-n2nc([N+](=O)[O-])c(=NCCc3ccc(Cl)cc3)n2O)cc1	6.09% (inactive)
COc1ccc(CNC(=O)C(CCSC)NS(=O)(=O)c2ccccc2F)cc1 (stereo not drawn)	5.1% (inactive)

Compound	inhibition
Cn1nnnc1SCC(=O)Nc1cccc([N+](=O)[O-])c1	2.78% (inactive)
Cc1ccc(-n2c(SCC(=O)Nc3ccc4c(c3)OCCO4)nnc2-c2ccco2)cc1	5.17% (inactive)
Cn1cccc1/C=C1/C(=O)NC(=O)N(Cc2ccccc2)C1=O	35.4% (inactive)
C=CCN1CCN(C(c2cc(OC)ccc2OC)c2nnnn2CC2CCCO2)CC1 (stereo not drawn)	31.2% (inactive)
COc1ccc(-c2nc(CNS(=O)(=O)c3ccc(OC)c(OC)c3)cs2)cc1	8% (inactive)
Cn1nnnc1SCc1nnc(-c2ccc(Cl)cc2)o1	6.53% (inactive)
NC(=O)c1ccc(-c2ccc(Br)cc2)o1	36.5% (inactive)
CCOc1ccc(N2CC(C(=O)NCCCN3CCOCC3)CC2=O)cc1 (stereo not drawn)	11.2% (inactive)
CCOC(=O)C1C(c2cc(OC)c(O)c(OC)c2)NC(=S)NC1(O)C(F)(F)F (stereo not drawn)	7.39% (inactive)
COCCCNCCCCOc1ccc(OCc2ccccc2)cc1	-0.12% (inactive)
O=C(NCN1C(=O)C2C3C=CC(C3)C2C1=O)Nc1nncs1 (stereo not drawn)	1.86% (inactive)
CCN(CC)c1ccc(C2C(C(=O)OCCOC)=C(C)NC3=C2C(=O)CC(C)(C)C3)cc1 (stereo not drawn)	-4.2% (inactive)
O=C(N/N=C/c1ccc(C(F)(F)F)cc1)c1ccc(O)cc1	4.56% (inactive)
CCC(=O)Nc1nnc(-c2ccccn2)o1	14.7% (inactive)
CCOC(=O)c1sc(=N)n(-c2ccc(OC)cc2)c1C	-1.33% (inactive)
CN1CCCN(S(=O)(=O)c2ccc(Cl)c(Cl)c2)CC1	0.45% (inactive)
CCN(/N=C/c1ccc(Cl)cc1)c1cc(=O)n(C)c(=O)[nH]1	12.2% (inactive)
COc1ccc(Cc2nnc(NC(=O)Cc3cccs3)s2)cc1	1.69% (inactive)
CSc1nc(=O)n2cc(C)ccc2n1	1.88% (inactive)
COc1ccccc1C(=O)NC(CCSC)C(=O)OCC(=O)NC(=O)NCc1ccco1 (stereo not drawn)	28% (inactive)
Cc1ccc(S(=O)(=O)N2CCN(C(=O)C3COc4ccccc4O3)CC2)cc1C (stereo not drawn)	-0.52% (inactive)
CC1CN(C(=O)/C(C#N)=C2\N=C(NC(=O)c3ccccc3Cl)c3ccccc32)CC(C)O1 (stereo not drawn)	-0.23% (inactive)
C#CCN1C(=O)C(O)(CC(=O)c2cccc(OC)c2)c2ccccc21 (stereo not drawn)	16% (inactive)
